{"source": "patent US20060148730A1", "about": "“Method of treating tuberculosis” (priority 2003, published 2006)", "system": "M. tuberculosis H37Rv", "assay": "MIC vs. M. tuberculosis H37Rv, microplate Alamar Blue assay (MABA)", "format": "cell-based", "details": "read-out: MIC", "key": {"[1]": {"details": "Table 3, parallel-synthesis carbazate library products, SPE purified"}}, "note": "Like-named read-outs stand apart in the source and are kept apart here."}
{"smiles": "CC[C@H]1OC(=O)[C@H](C)[C@@H](O[C@H]2CC(C)(OC)[C@@H](O)[C@H](C)O2)[C@H](C)[C@@H](O[C@@H]2O[C@H](C)C[C@H](N(C)C)[C@H]2O)[C@](C)(OC)C[C@@H](C)C(=O)[C@H](C)[C@H]2N(NCc3cccnc3)C(=O)O[C@]12C", "note": "(stereo partly shown) [D9′]", "values": [{"measurement": "MIC", "setting": "[1]", "value": ">15", "unit": "µM"}]}
{"smiles": "CCC1OC(=O)C(C)(F)C(=O)C(C)C(OC2OC(C)CC(N(C)C)C2O)C(C)(OC)CC(C)C(=O)C(C)C2N(NCCCc3ccnc4ccccc34)C(=O)OC12C", "note": "(stereo not shown) [RU3562]", "values": [{"measurement": "MIC", "setting": "Table 1a, 11,12-carbamate derivatives, anti-TB activity", "value": 16, "unit": "µM"}]}
{"smiles": "CCCCc1nc(CNN2C(=O)O[C@]3(C)[C@@H](CC)OC(=O)[C@H](C)[C@@H](O[C@H]4CC(C)(OC)[C@@H](O)[C@H](C)O4)[C@H](C)[C@@H](O[C@@H]4O[C@H](C)C[C@H](N(C)C)[C@H]4O)[C@](C)(OC)C[C@@H](C)C(=O)[C@H](C)[C@@H]23)c(Cl)[nH]1", "note": "(stereo partly shown) [B7′]", "values": [{"measurement": "MIC", "setting": "[1]", "value": ">19", "unit": "µM"}]}
{"smiles": "CC[C@H]1OC(=O)[C@H](C)[C@@H](O[C@H]2CC(C)(OC)[C@@H](O)[C@H](C)O2)[C@H](C)[C@@H](O[C@@H]2O[C@H](C)C[C@H](N(C)C)[C@H]2O)[C@](C)(OC)C[C@@H](C)C(=O)[C@H](C)[C@H]2N(NCc3ccc([N+](=O)[O-])o3)C(=O)O[C@]12C", "note": "(stereo partly shown) [A8′]", "values": [{"measurement": "MIC", "setting": "[1]", "value": ">9", "unit": "µM"}]}
{"smiles": "CC[C@H]1OC(=O)[C@H](C)[C@@H](O)[C@H](C)[C@@H](O[C@@H]2O[C@H](C)C[C@H](N(C)C)[C@H]2O)[C@](C)(OC)C[C@@H](C)C(=NOCCCc2ccccc2)[C@H](C)[C@@H](O)[C@]1(C)O", "note": "[Compound 2GY15]", "values": [{"measurement": "MIC", "setting": "Table 5", "value": 6.3, "unit": "µM"}]}
{"smiles": "CC[C@H]1OC(=O)[C@H](C)[C@@H](O[C@H]2CC(C)(OC)[C@@H](O)[C@H](C)O2)[C@H](C)[C@@H](O[C@@H]2O[C@H](C)C[C@H](N(C)C)[C@H]2O)[C@](C)(OC)C[C@@H](C)C(=O)[C@H](C)[C@H]2N(NCc3ccc4c(c3)nnn4C)C(=O)O[C@]12C", "note": "(stereo partly shown) [H7′]", "values": [{"measurement": "MIC", "setting": "[1]", "value": ">22", "unit": "µM"}]}
{"smiles": "CCC1OC(=O)C(C)C(OC2CC(C)(OC)C(O)C(C)O2)C(C)C(OC2OC(C)CC(N(C)C)C2OC(=S)Nc2ccccc2)C(C)(O)CC(C)C(=NOCOCCOC)C(C)C(O)C1(C)O", "note": "(stereo not shown) [Compound 3ZZ59b]", "values": [{"measurement": "MIC", "setting": "Table 5", "value": 5.6, "unit": "µM"}]}
{"smiles": "CCC1OC(=O)C(C)C(O)C(C)C(OC2OC(C)CC(N(C)C)C2O)C(C)(OC)CC(C)C(=NOCCC2CCCCC2)C(C)C(O)C1(C)O", "note": "(stereo not shown) [Compound 2GY5]", "values": [{"measurement": "MIC", "setting": "Table 5", "value": 3.1, "unit": "µM"}]}
{"smiles": "CC[C@H]1OC(=O)[C@H](C)[C@@H](O[C@H]2CC(C)(OC)[C@@H](O)[C@H](C)O2)[C@H](C)[C@@H](O[C@@H]2O[C@H](C)C[C@H](N(C)C)[C@H]2O)[C@](C)(OC)C[C@@H](C)C(=O)[C@H](C)[C@H]2N(NCc3cc(C(=O)OC)c(C)o3)C(=O)O[C@]12C", "note": "(stereo partly shown) [A12′]", "values": [{"measurement": "MIC", "setting": "[1]", "value": ">12", "unit": "µM"}]}
{"smiles": "CCC1OC(=O)C(C)C(OC2CC(C)(OC)C(O)C(C)O2)C(C)C(OC2OC(C)CC(N(C)C)C2O)C(C)(O)CC(C)C(=NN=Cc2ccc(SC)cc2)C(C)C(O)C1(C)O", "note": "(stereo not shown) [Compound 1OK121]", "values": [{"measurement": "MIC", "setting": "Table 5", "value": 12, "unit": "µM"}]}
{"smiles": "CC[C@H]1OC(=O)[C@H](C)[C@@H](O[C@H]2CC(C)(OC)[C@@H](O)[C@H](C)O2)[C@H](C)[C@@H](O[C@@H]2O[C@H](C)C[C@H](N(C)C)[C@H]2O)[C@](C)(OC)C[C@@H](C)C(=O)[C@H](C)[C@H]2N(NCc3ccnc4ccccc34)C(=O)O[C@]12C", "note": "(stereo partly shown) [D11′]", "values": [{"measurement": "MIC", "setting": "[1]", "value": 16, "unit": "µM"}]}
{"smiles": "CC[C@H]1OC(=O)[C@H](C)C(=O)[C@H](C)[C@@H](O[C@@H]2O[C@H](C)C[C@H](N(C)C)[C@H]2O)[C@](C)(OC)C[C@@H](C)C(=NOCOCCOC)[C@H](C)[C@@H](O)[C@]1(C)O", "note": "[RU54615]", "values": [{"measurement": "MIC", "setting": "Table 2a, 11,12-diols, anti-TB activity", "value": ">128", "unit": "µM"}]}
{"smiles": "CCC1OC(=O)C(C)C(OCc2ccccc2)C(C)C(OC2OC(C)CC([N+](C)(C)Cc3ccccc3)C2OCc2ccccc2)C(C)(OC)CC(C)C(=NOCc2ccccc2)C(C)C(O)C1(C)O", "note": "(stereo not shown) [Compound 2GY12]", "values": [{"measurement": "MIC", "setting": "Table 5", "value": 6.3, "unit": "µM"}]}
